The text below walks through data of patent US20030129189A1, “Tumor necrosis factor-gamma” (priority 1994, published 2003).

Experiment [1] deals with bovine pulmonary artery endothelial cells (BPAEC). Put plainly: Endothelial cell apoptosis (morphology, Hoechst staining, DNA fragmentation). It is filed as cell-based. As to conditions: BPAEC, 48 hours, Hoechst 33342. The method, then: [Bovine pulmonary artery endothelial cells were incubated with various concentrations of TNF-gamma for 48 hours. The apoptosis was assessed by nuclear staining with Hoechst 33342 fluorescence dye (10 mg/ml).] […] [U937 cells were transfected using lipofectamine (following manufacturer's instruction) with 0.2 mg of reporter plasmid (NF-kappaB-SEAP). The transfected U937 cells were collected and added to the 96-well plate ([…]/well) with various concentrated of TNF-gamma. After Incubation at 37° C. for 72 hr, the NF-kappaB activity was measured with luminometer at absorbance of 450 nm.]
Bovine pulmonary artery endothelia cells (BPAEC) were incubated with various concentrations of TNF-gamma for 48 hours. Apoptosis was assessed morphologically and by nuclear staining with Hoechst 33342 fluorescence dye (10 mg/ml) in triplicate. Live and apoptotic cells were scored in four random fields, about 1,000 cells were counted. The DNA fragmentation was analyzed as described previously.
BPAEC were obtained from the American Type Culture Collection (Rockville, Md., USA). The cells were grown in DMEM supplemented with 10% heat-inactivated FCS in a humidified environment of 5% CO2/[…] at 37° C. as previously described (Yue, T. L., et al., Mol. Pharmacol. 51:951-962 (1997)). Cells at a subconfluent density were used. Before experiments, the medium was changed to DMEM contained 2% FCS. BPAEC from passages 17-20 were used in all studies.
To quantify cells undergoing apoptosis, cell monolayers were fixed and stained with Hoechst […] (Molecular probe, Eugene, Oreg., USA) as described previously (Yue, T. L., et al., Mol. Pharmacol. 51:951-962 (1997)). The morphological features of apoptosis (cell shrinkage, chromatin condensation, blebbing, and fragmentation) were monitored by fluorescence microscopy. Transmission electron microscopy study was done as reported previously (Yue, T. L., et al., Mol. Pharmacol. 51:951-962 (1997)).
DNA ladder: Cells treated with vehicle or TNF-gamma-alpha were lysed in lysis buffer containing 100 mM NaCl, 10 mM Tris-HCl, pH 8.0, 2.5 mM EEDTA, 0.5% SDS, and 100 micrograms/ml […]. The lysates were incubated at 55° C. for 16 h. After incubation, the lysates were gently extracted three times with pheno/chloroform/isoamyl alcohol, precipitated in ethanol, treated with DNAse-free RNAse, re-extracted, and precipitated again as described previously. DNA electrophoresis was carried out in 1.8% agarose gels containing ethidium bromide, and DNA fragmentations were visualized under ultraviolet light.
In situ end-labeling (TUNEL): BPAEC were cultured in two-chamber slides (Nunc) and treated with TNF-gamma-alpha for 8 to 24 h. In situ detection of apoptotic cells was performed by using terminal deoxyribonucleotide transferase-mediated dUTP nick end labeling with an ApopTag in situ apoptosis detection kit (Oncor) following the manufacturer's recommendation.
The cells were plated in two-chamber slides. The cells were cotransfected with 0.5 μg/ml of Pegfp-c-1 (Clontech; Li, Y. and Horwitz, M. S. Biotechnology 23:1026-1028) as a fluorescent marker of transfected cells together with 1 μg/ml of either the empty cloning vector pcDNA1 (control) or the dominant-interfering c-Jun mutant pcDNA1-FlagΔ169 (Xia, Z., et al., Science 270:1326-1331 (1995)) using Calphos Maximizer Transfection Kit (Clontech) according to the manufacturer's recommendation. Following transfection, the cells were allowed to recover in complete medium for 24 h. The cells were treated with TNF-gamma-alpha and the number of apoptotic cells was assessed by nuclear staining after fixation as described in Methods.

The subject of a further experiment is Primary HUVEC. Put plainly: TNF-gamma activity on primary HUVEC. Also noted: key: The numbers of “+” indicate the relative level of activities.; ++: The numbers of “+” indicate the relative level of activities.; +++: The numbers of “+” indicate the relative level of activities.; “−” indicates no detected activity at the concentration range tested. In kind it is cell-based, human.

Experiment [2] relates to chorioallantoic membrane (CAM). Put plainly: Chicken embryonic chorioallantoic membrane (CAM) angiogenesis assay. In kind it is in vivo. As to conditions: 250 ng bacterially-produced TNF-gamma mixed with FGF-2 (100 ng) or VEGF (250 ng). On the procedure:
The CAM assay was carried out essentially as described by Nguyen and colleagues (Microvasc. Res. 47:31-40 (1994)) and Iruela-Arispe and Dvorak (Thromb. Haemost. 78:672-677 (1997)). The method is based on the growth of new capillary vessels into a collagen gel pellet placed directly on the chorioallantoic membrane (CAM). Angiogenic factors such as […], FGF-2 (100 ng), VEGF (250 ng), or bFGF (10, 500, and 1000 ng) were embedded in collagen gel pellets and placed in contact with the CAM. Quantification of angiogenesis in the gels was carried out 24 hours after the placement of the gel pellets by using a Nikon fluorescence microscope. The images were transferred to a Power PC 100 AV, using a CCD Sony camera. Fluorescence intensity was evaluated with NH Image 1.61 software. Fluorescence intensity for the positive controls (which contained an angiogenic factor alone) was considered as the maximum angiogenic response, and set, arbitrarily, at 100. Due to the variability of the assay, inhibition greater than 20% was considered significant.
As an experimental determination of the effect of TNF-gamma on the FGF-2- or VEGF-induced angiogenesis, bacterially-produced TNF-gamma (250 ng) was mixed with either FGF-2 (100 ng) or VEGF (250 ng) and embedded in collagen gel pellets. The pellets were then placed in contact with the CAM as described above.

For a further experiment, the system named is Jurkat. The experiment can be described thus: TNF-gamma activity on Jurkat cells. It is filed as cell-based. As to conditions: human T-cell lymphoma. Set-up: key: The numbers of “+” indicate the relative level of activities.; ++: The numbers of “+” indicate the relative level of activities.; +++: The numbers of “+” indicate the relative level of activities.; “−” indicates no detected activity at the concentration range tested. The method, then: The adherent target cells were prepared from confluent cultures by trypsinization in PBS, and non-adherent target cells were harvested from stationary cultures and washed once with medium. Target cells were suspended at 3×10^5 cells/ml in medium containing 10% FCS. 0.1 ml aliquots were dispensed into 96-well flat-bottomed microtiter plates containing 0.1 ml serially diluted test samples of cells (WEHI 164 and L929). Incubation was continued for 70 hours. TNF-alpha, TNF-beta and bacterially-produced TNF-gamma were added at a 0.5 μg/ml concentration. The cytotoxicity and proliferation activity was quantified using an MTS assay performed by the addition of 20 μl of MTS and phenazine methosulfate (PMS) solution to each well. After a three hour incubation, the OD at 492 nm was measured by an ELISA plate reader. The OD492 is proportional to the number of viable cells in the wells. The percent of cytotoxicity was calculated as follows: […]. The photographs were taken after 72 hours.

With “TNF-gamma: new member of the tumor necrosis factor family; the term refers to TNF-gamma-alpha and/or TNF-gamma-beta”, the apoptosis entry in experiment [1] is listed as “induces apoptosis”. Also, in the experiment on Primary HUVEC, the Differentiation result is given as “−?” and the Proliferation entry is on record as “++”. Moreover, in experiment [2], the “new capillary growth into collagen gels (FGF-2- or VEGF-induced angiogenesis)” value is recorded as “markedly inhibited new capillary growth into collagen gels”. Further, in the experiment with Jurkat, the Adhesion result is given as “−−”, the Differentiation entry is “−−” and the Proliferation entry is “−”.
